Laboratory results taken from ChEMBL document CHEMBL4014340, “Identification of a Potent, Selective, and Efficacious Phosphatidylinositol 3-Kinase δ (PI3Kδ) Inhibitor for the Treatment of Immunological Disorders” (J Med Chem, 2017).

Legend:
[1] = Metabolic stability in human liver microsomes assessed as parent compound remaining at 0.5 uM preincubated for 6 mins followed by NADPH addition measured after 10 mins by LC-MS/MS analysis; type: ADME, microsome; conditions: read-out: Stability
[2] = Metabolic stability in rat liver microsomes assessed as parent compound remaining at 0.5 uM preincubated for 6 mins followed by NADPH addition measured after 10 mins by LC-MS/MS analysis; type: ADME, microsome; conditions: read-out: Stability
[3] = Metabolic stability in mouse liver microsomes assessed as parent compound remaining at 0.5 uM preincubated for 6 mins followed by NADPH addition measured after 10 mins by LC-MS/MS analysis; type: ADME, microsome; conditions: read-out: Stability
[4] = Cmax in Balb/c mouse at 10 mg/kg, po; type: ADME, organism-based; set-up: dose 10 mg/kg, route oral; conditions: in vivo
[5] = AUC (0 to 24 hrs) in Balb/c mouse at 10 mg/kg, po; type: ADME, organism-based; set-up: time < 24 hr, dose 10 mg/kg, route oral; conditions: in vivo
[6] = Half life in human liver microsomes aat 0.5 uM preincubated for 6 mins followed by NADPH addition measured after 10 mins by LC-MS/MS analysis; type: ADME, microsome
[7] = Half life in rat liver microsomes aat 0.5 uM preincubated for 6 mins followed by NADPH addition measured after 10 mins by LC-MS/MS analysis; type: ADME, microsome
[8] = Half life in mouse liver microsomes aat 0.5 uM preincubated for 6 mins followed by NADPH addition measured after 10 mins by LC-MS/MS analysis; type: ADME, microsome
[9] = AUC (0 to 24 hrs) in Balb/c mouse at 30 mg/kg, po; type: ADME, organism-based; set-up: dose 30 mg/kg, time < 24 hr, route oral; conditions: in vivo
[10] = AUC (0 to 24 hrs) in Balb/c mouse at 100 mg/kg, po; type: ADME, organism-based; set-up: dose 100 mg/kg, time < 24 hr, route oral; conditions: in vivo

Row | remaining at 10 min, 0.5 µM [1] [%] | remaining at 10 min, 0.5 µM [2] [%] | remaining at 10 min, 0.5 µM [3] [%] | SMILES | other results
1 | 89 | 91 | 100 | CC(=O)N1C[C@H](C)N(c2cc(-c3cc(C(F)(F)F)c4c(N)ncnn34)ccc2C#N)C(=O)C1(C)C | –
2 | 96 | 96 | 97 | CC(=O)N1CCN(c2cc(-c3cc(C(F)(F)F)c4c(N)ncnn34)ccc2S(C)(=O)=O)C(=O)C1(C)C | –
3 | – | – | – | CC(=O)N1CCN(c2cccc(-c3cc(-c4cnn(C5CC5)c4)c4c(N)ncnn34)c2)C(=O)C1(C)C | Cmax [4]: 470 nM; AUC(0-t) at 24 h [5]: 1.1 µM·h
4 | 95 | 100 | 100 | COc1ccc(-c2cc(C(F)(F)F)c3c(N)ncnn23)cc1N1CCN(C(C)=O)C(C)(C)C1=O | –
5 | 100 | 57 | 17 | CC(=O)N1CCN(c2cccc(-c3cc(Cl)c4c(N)ncnn34)c2)C(=O)C1(C)C | half-life at 0.5 µM [6]: > 120 min; half-life at 0.5 µM [7]: 16 min; half-life at 0.5 µM [8]: 4 min; AUC(0-t) at 24 h [9]: 2.9 µM·h; AUC(0-t) at 24 h [10]: 17 µM·h
6 | 100 | 100 | 100 | CC(=O)N1CCN(c2cc(-c3cc(Cl)c4c(N)ncnn34)ccc2C(C)O)C(=O)C1(C)C (racemic) | –
7 | 95 | 87 | 88 | CC(=O)N1CCN(c2cc(-c3cc(Cl)c4c(N)ncnn34)ccc2C(F)(F)F)C(=O)C1(C)C | –
8 | 92 | 100 | 45 | CC(=O)N1CCN(c2cc(C)cc(-c3cc(Cl)c4c(N)ncnn34)c2)C(=O)C1(C)C | –
9 | 99 | 94 | 85 | CC(=O)N1C[C@H](C)N(c2cc(-c3cc(Cl)c4c(N)ncnn34)ccc2C#N)C(=O)C1(C)C | –
10 | 90 | 43 | 23 | CC(=O)N1C[C@@H](C)N(c2cc(-c3cc(C(F)(F)F)c4c(N)ncnn34)ccc2C#N)C(=O)C1(C)C | –
11 | 100 | 100 | 100 | CC(=O)N1CCN(c2cc(-c3cc(C(F)(F)F)c4c(N)ncnn34)ccc2C(C)O)C(=O)C1(C)C (racemic) | –
